Like-named read-outs stand apart in the source and are kept apart here.
Key:
[1] = tested on: E3 organism; experiment: Zone of Inhibition testing of antimicrobial-loaded transdermal matrix disks; assay type: cell-based, gram-positive, coagulase-negative cocci
Experimental: These patches were cut into 1 cm^2 disks and subjected to Zone of Inhibition testing against the E3 organism with 24-hour incubation.
In the next experiment, placebo matrix patches (18 cm^2 area) were manufactured for a clinical wear study.

[2] = in vivo; cited from earlier work
[3] = tested on: E3 organism; experiment: Zone of Inhibition testing of paper discs saturated with aqueous antimicrobial solutions; assay type: cell-based, gram-positive, coagulase-negative cocci
Experimental: In this experiment, the effectiveness of various topical antimicrobial agents against the E3 organism was determined using Zone of Inhibition testing of paper discs saturated with aqueous antimicrobial solutions.

[4] = tested on: bacterial count on the skin; details: cited from earlier work
[5] = In vitro skin flux from PSA matrix patches and hydroalcoholic gels (modified Franz diffusion cells); details: 24-hour skin flux of the drug from Morstick 214 PSA patch with 1% BzthCl, relative to 0% enhancer
Experimental: In vitro skin flux studies were conducted on epidermal membranes (stratum corneum and epidermis) obtained from whole human cadaver skin (epidermal membrane and dermis) by the heat-separation method of Kligman & Christopher, 88 Arch. […] This method consists of immersion of the whole skin for 60 seconds in water at 60° C., followed by mechanical separation of the epidermal and dermal layers. After separation, the epidermal membrane is stored in aluminum foil at −5° C. until use.
Skin flux experiments were conducted in two-compartment glass diffusion cells with a modified Franz design. The receiver compartment was filled with water or an aqueous buffer appropriate to maintain sink conditions for the drug. All receiver media included 0.02% (w/w) sodium azide to inhibit bacterial growth. […]
At predetermined sampling intervals, the entire volume of the receiver compartment solution was collected for drug quantification, and the receiver compartment was filled with fresh receiver solution, taking care to eliminate any air bubbles at the skin/solution interface.
Receiver solution samples were analyzed for drug content by HPLC with external standards of known drug concentration used for calibration. The cumulative amount of drug permeated per unit area at any time t (Qt, μg/cm^2) was determined according to the following equation: [formula] […]

[6] = aqueous solution 2.0% w/w on 0.33 cm^2 paper disks, read-out: Zone of Inhibition

benzalkonium chloride
Zone of Inhibition ([1]; 0.4% w/w in DuroTak 87-2888 adhesive matrix disks, 24-hour incubation): 15 mm | skin irritation [2]: severe irritation | Zone of Inhibition ([3]; aqueous solution 0.4% w/w on 0.33 cm^2 paper disks): 13 mm | time required for the bacterial count on the skin to be decreased by 50% [4]: 7 min | time required to effect a 90% reduction of bacterial count [4]: 25 min

COC(=O)c1ccc(O)cc1 [Methyl Paraben]
zone of inhibition at 2 % strength [3, 6]: 0 mm

O=C(O)c1ccccc1 [Benzoic Acid]
zone of inhibition at 0.4 % strength ([1]; 24 h): < 0 mm | zone of inhibition at 2 % strength [3]: 10 mm

Cl.O=C1CC2(CCCC2)CC(=O)N1CCCCN1CCN(c2ncccn2)CC1 [Buspirone HCI]
% Increase in Q24 [5]: 38 (21%)

OCc1ccccc1 [Benzyl Alcohol]
zone of inhibition at 2 % strength [3, 6]: 10 mm

CCO [70% ethanol, ethanol]
time required for the bacterial count on the skin to be decreased by 50% [4]: 0.6 min | time required to effect a 90% reduction of bacterial count [4]: 2 min
